Experimental data published in article PMC9804781, “Identification of a Novel Pseudo‐Natural Product Type IV IDO1 Inhibitor Chemotype” (Angewandte Chemie (International Ed. in English), 2022).

What was measured:
[1] = tested on: Kyn levels in BxPC-3 cells; assay: Manual Kyn assay in BxPC-3 cells (p-DMAB detection), incl. hemin competition; format: cell-based; details: IFN-γ, L-Trp
Method: Mammalian cell lines were maintained at 37°C and 5% CO2 in a humidified atmosphere and sub-cultivated twice a week. All cell lines were tested regularly for mycoplasma contamination and were always free of mycoplasma. BxPC-3 cells (DSMZ#760) were grown in RPMI-1640 medium supplemented with 10% FBS, 2 mM L-glutamine, 1 mM sodium pyruvate, 4.5 g/L glucose, 10 mM HEPES and 1.5 g/L NaHCO3. HeLa cells (DSMZ#57) were cultivated in DMEM supplemented with 10% FBS, 4.5 g/L glucose, 4 mM L-glutamine 1 mM sodium pyruvate, 1% non-essential amino acids, 3.7 g/L NaHCO3. SKOV-3 cells (ATCC#HTB-77) were maintained in modified McCoy’s 5A medium supplemented with 10% FBS, 1.5 mM L-glutamine and 2.2 g/L NaHCO3. […]
For manual testing, BxPC-3, HeLa or SKOV-3 cells (20,000 cells/well, 5,000 cells/well or 6,250 cells/well, respectively) were seeded in 96-well plates (BxPC-3 and HeLa) or 384-well plates (SKOV-3) in medium without phenol red. […]
temperature and centrifuged for 10 min at 1800 x g. Afterwards, an equal volume of freshly prepared 2% (w/v) p-DMAB in glacial acetic acid (Ehrlich reagent) was added prior to measuring the absorbance at 492 nm and 650 nm on the Spark® Multimode Microplate Reader (Tecan, AT).
To determine the Kyn levels, the absorbance of the Kyn-p-DMAB adduct A492 was subtracted by the background absorbance A650 and normalized to the DMSO control. […]

IDO1 = IDO1 (Homo sapiens, UniProt P14902); assay: Kyn assay in IDO1-HEK293T cells (CMV promoter); format: cell-based; design: host or cells: HEK293T; details: absence of IFN-γ; L-Trp, 24 h; p-DMAB
Sequence of IDO1 (P14902 whole entry): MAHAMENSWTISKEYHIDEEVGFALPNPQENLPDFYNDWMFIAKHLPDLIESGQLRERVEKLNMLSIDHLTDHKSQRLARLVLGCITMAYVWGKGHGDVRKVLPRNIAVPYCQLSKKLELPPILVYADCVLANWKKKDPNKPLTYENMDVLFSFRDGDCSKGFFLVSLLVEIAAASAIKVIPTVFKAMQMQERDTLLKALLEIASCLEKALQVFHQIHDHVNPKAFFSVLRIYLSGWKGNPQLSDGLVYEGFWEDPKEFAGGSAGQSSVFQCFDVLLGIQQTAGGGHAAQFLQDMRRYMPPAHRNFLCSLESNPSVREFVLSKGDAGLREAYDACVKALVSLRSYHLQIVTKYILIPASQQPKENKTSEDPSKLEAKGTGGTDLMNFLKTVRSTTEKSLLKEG
Method: page 80: temperature and centrifuged for 10 min at 1800 x g. Afterwards, an equal volume of freshly prepared 2% (w/v) p-DMAB in glacial acetic acid (Ehrlich reagent) was added prior to measuring the absorbance at 492 nm and 650 nm on the Spark® Multimode Microplate Reader (Tecan, AT). To determine the Kyn levels, the absorbance of the Kyn-p-DMAB adduct […] was subtracted by the background absorbance A650 and normalized to the DMSO control. Data analysis was performed using a non-linear regression curve fit and GraphPad Prism 9.0 (GraphPad Software, Inc, US) to generate dose-response curves and obtain IC50 values. […] Afterwards, an equal volume of freshly prepared 2% (w/v) p-DMAB in glacial acetic acid (Ehrlich reagent) was added prior to measuring the absorbance at 492 nm and 650 nm on the Spark® Multimode Microplate Reader (Tecan, AT). To determine the Kyn levels, the absorbance of the Kyn-p-DMAB adduct […] was subtracted by the background absorbance A650 and normalized to the DMSO control. […] Afterwards, an equal volume of freshly prepared 2% (w/v) p-DMAB in glacial acetic acid (Ehrlich reagent) was added prior to measuring absorbance at 492 nm and 650 nm on the Spark® Multimode Microplate Reader (Tecan, AT). To determine the Kyn levels, the absorbance of the Kyn-p-DMAB adduct […] was subtracted by the background absorbance A650 and normalized to the DMSO control. […]

[2] = Ligand integrity in the crystallization drop (HPLC-ESI-MS); format: physicochemical; details: 63 days after the crystallization setup
Method: for 10 min. Protein crystals were obtained from a sitting drop setup (iQ plates, SPT Labtech, UK) by addition of 100 nL of the reservoir solution (40% (v/v) PEG200 in 100 mM MES, pH 6.5) to 100 nL of protein solution and incubation at 20°C. Crystals were harvested after 7 days by addition of reservoir solution as cryoprotectant to the drop prior to plunging of the crystals in liquid nitrogen. […]
The integrity of apoxidole-1 in the protein solution was assessed 63 days after the crystallization setup by mixing the crystallization drop with 100 µL of DCM and recording of HPLC-ESI-MS spectra using the LTQ Fleet (Thermo Fisher Scientific, US), Ultimate 3000 HPLC (Thermo Fisher Scientific, US) and Xcalibur™ software (Thermo Fish er Scientific, US). […]
(v/v) component 2 in component 1) and 50 µM Test Inhibitor (0.5% (v/v) DMSO) for 90 min at 30°C with slow shaking in the dark prior to initiation of the reaction by addition of 20% (v/v) IDO2 Substrate. Samples were incubated for 120 min at 30°C with slow shaking in the dark. […]

SMILES: CCOC(=O)C1=CC[C@](C(=O)OC)(c2cc3ccccc3n2C)N(S(=O)(=O)c2ccc(C)cc2)[C@@H]1C(=O)OC(C)(C)C [Compound 3d]
- effect of free hemin on potency in the Kyn assay ([1]; BxPC-3, hemin, 600 nM apoxidole-1, 48 h): reduced the potency
- activity in Kyn assay in BxPC-3 cells ([1]; BxPC-3 cells, 48 h, p-DMAB): completely inactive
- Kyn production in HEK293T cells transiently expressing IDO1 (IDO1): inhibited Kyn production
- ligand integrity after crystallization setup [2]: still intact
